The source of these data is patent US20220304309A1, “IRON COMPLEXES AND USES THEREFOR” (priority 2019, published 2022).

Data set [1] relates to X. campestris. The note with it: for A600: 36 hours at 28° C.
Data set [2] is described as follows: Stability of ferrous iron complexes in solution over 180 days. Conditions: for Ferrous iron / Total iron: room temperature in the dark; for Stability of solutions of the complex: stored at ambient temperature (TFDC in the dark).
Data set [3] in a line: Total, ferrous and ferric iron content of the complexes immediately after preparation (1,10-phenanthroline). The note with it: 50 mM solution; for Ferric iron: total minus ferrous.
Data set [4] has as its system Pectobacterium carotovorum subsp. brasiliense (Pcb). Briefly: In planta trial on Pcb-infiltrated potato tubers. Conditions: weekly foliar spray or root drench.
Data set [5] can be described thus: Fenton activity test with H2O2 and methylene blue.
The nature of data set [6]: Reduction of ferric iron in the ferric tri-pyruvate complex over 10 days. In kind it is physicochemical. The procedure:
A 50 mM solution of the ferric tri-pyruvate complex was prepared as described in Example 5. The stability of the complex was measured by determining the total iron, ferrous iron and ferric iron over the course of 10 days.

Data set [7] deals with Bacillus subtilis. Description: Bactericidal and sporicidal activity on Bacillus subtilis cells or spores suspended in water. The note with it: increasing concentrations and exposure times; 10 mM sodium ascorbate, sub-inhibitory hydrogen peroxide. Type of data set: cell-based. The procedure:
Because of its activity as a Fenton reagent, FDP produces reactive oxygen species (e.g. hydroxyl radicals, superoxide radicals) that are toxic to bacterial spores and spore-forming bacteria. […] After exposure to FDP for various periods of time, the number of viable colony-forming units is determined by plating aliquots of serial dilutions of the solutions.

For data set [8], the system named is spores of B. subtilis. Description: Decontamination of surfaces contaminated with B. subtilis spores. In kind it is cell-based, Bacillus subtilis. The note with it: swabbing or spraying, optionally mixed with ascorbate and/or hydrogen peroxide. The procedure: In additional experiments, surfaces that have been intentionally contaminated with spores of B. subtilis are wiped or sprayed with solutions of FDP (e.g., 1 mM, 2 mM, 3 mM, 4 mM, 5 mM, 6 mM, 7 mM, 8 mM, 9 mM, 10 mM, 12.5 mM, 15 mM, 20 mM, 25 mM, 50 mM, 75 mM 100 mM or more); optionally including ascorbate (e.g. 10 mM) and/or hydrogen peroxide at a concentration of, e.g., 1 mM or less, 2 mM or less, 3 mM or less, 4 mM or less, 5 mM or less, 6 mM or less, 7 mM or less, 8 mM or less, 9 mM or less, 10 mM or less, 12.5 mM or less, 15 mM or less, 20 mM or less, 25 mM or less, 30 mM or less, 40 mM or less, 50 mM or less, 60 mM or less, 70 mM or less, 80 mM or less, 90 mM or less, 100 mM or less, 125 mM or less, 150 mM or less, 175 mM or less, or 200 mM or less. The surfaces are then swabbed, the swabs are suspended in water or medium, and CFU are determined by plating aliquots of serial dilutions of the liquid in which the swabs were suspended.

For data set [9], the system named is C. liberibacter spp. In kind it is in vivo, rough lemon trees. Conditions: 50 μM, foliar or root drench, every three days over three months.
[10] abbreviates: 60 Days after complex formation.
The mark [11] stands for this setting: 180 Days after complex formation.
[12] abbreviates: 1 ml 50 mM complex + 1 ml 40% H2O2, 0.1% (w/v) methylene blue, 1 hour at ambient temperature.
The mark [13] stands for this setting: 0 days after complex formation, 50 mM solution.
The mark [14] stands for this setting: 1 day after complex formation, 50 mM solution.
[15] abbreviates: 7 days after complex formation, 50 mM solution.
Setting [16] is: 10 days after complex formation, 50 mM solution.

“Also recorded” adds a separate entry of the source. Like-named read-outs stand apart in the source and are kept apart here.

`O=C1O[C@H]([C@@H](O)CO)C([O-])=C1O.[Na+]` [ascorbate, sodium ascorbate, reference compound] came in with an A600 in [1] (no preincubation, addition 5 mM ascorbate) of 0.512.

Regarding `O=C([O-])CC(O)(CC(=O)[O-])C(=O)[O-].O=C([O-])CC(O)(CC(=O)[O-])C(=O)[O-].[Fe+2].[Fe+2].[Fe+2]` [tri-ferrous di-citrate], the “Light sensitivity on storage” value in data set [2] is “must be stored in the dark to prevent autodegradation”. Also, the Ferrous iron came out at 100 mM in data set [2] (1 Day after complex formation), 99 mM in data set [2] (setting [10]), 98 mM in data set [2] (setting [11]) and 49.7 mM in [3]. Further, the Total iron in data set [2] (1 Day after complex formation) worked out at 100 mM; in data set [2] (setting [10]) it was 100 mM; in data set [2] (setting [11]) it was 100 mM; in [3], 50 mM. In addition, the “Stability of solutions of the complex” value in data set [2] is on record as “stable for up to six months”. The compound also had a Ferric iron in data set [3] of less than 1 mM. Moreover, in data set [4], the “Symptoms of Pcb infection in potato plants” value is recorded as “reduce symptom of Pcb infection”. In addition, the “Fenton activity (loss of blue color, brown precipitate)” value in [5] (setting [12]) was “exhibited Fenton activity”; in data set [5] (1 ml 50 mM complex + 1 ml 40% H2O2, 0.1% (w/v) methylene blue, 1 hour at ambient temperature, listed as tri-ferrous di-citrate complex) it was “significant Fenton activity”.

Take “ferric tri-pyruvate [ferric tri-pyruvate complex]”: the Ferric iron in data set [6] (setting [13]) was more than 49 mM; in data set [6] (setting [14]), 39 mM; in data set [6] (setting [15]), 2 mM; in data set [6] (setting [16]) it was 2 mM. The Ferrous iron in data set [6] (setting [13]) is listed as less than 1 mM; in [6] (setting [14]) it was 11 mM; in data set [6] (setting [15]) it was 48 mM; in [6] (setting [16]), 48 mM. Further, the Total iron in [6] (setting [13]), in [6] (setting [14]), in data set [6] (setting [15]) and in data set [6] (setting [16]) was 50 mM throughout. In addition, in [6] (50 mM solution), the “Oxidation state of the iron upon formation of the complex” value is “essentially all the iron was in the ferric oxidation state”. Besides, the “Reduction of ferric ions to ferrous” value in data set [6] (after one week (7-day period)) was “essentially all iron is in the ferrous oxidation state; also recorded: essentially all the ferric iron was reduced to the ferrous oxidation state”; in data set [6] (within one day after formation of the complex, ambient conditions), “approximately one-fifth of ferric ions have been reduced to ferrous”. The “Fenton activity (loss of blue color, brown precipitate)” value in data set [5] (14-day old reduced complex, 50 mM + 40% H2O2, 1 hour at ambient temperature) is “significant Fenton activity”.

With ferrous di-pyruvate, the Ferrous iron in data set [2] (1 Day after complex formation) came to 99 mM; in [2] (setting [10]), 97 mM; in data set [2] (setting [11]) it was 98 mM; in data set [3], 49.5 mM. Further, the Total iron in data set [2] (1 Day after complex formation) is on record as 100 mM; in data set [2] (setting [10]), 100 mM; in data set [2] (setting [11]) it was 100 mM; in data set [3], 50 mM. In addition, in [2], the “Stability of solutions of the complex” value is “stable for up to six months”. In addition, the “Cell killing of B. subtilis cells or spores (viable CFU)” value in [7] was “higher levels of cell killing”. Moreover, the “Effect on growth of X. campestris (in words)” value in [1] (Table 5, most pronounced after preincubation with ascorbate and copper) is “able to block the growth of X. campestris”. In addition, in data set [1] (Table 6, most pronounced after preincubation with ascorbate and copper), the “Killing of X. campestris (in words)” value is recorded as “able to kill X. campestris”. Moreover, the CFU in [1] (no preincubation, addition 5 mM ascorbate + 5 μM Cu(II) + 0.25 mM FDP, 36 hour treatment) is 2.28 × 10^9 CFU per ml. Besides, the A600 is recorded as 0.420 in data set [1] (no preincubation, addition 5 mM ascorbate + 5 μM Cu(II) + 0.25 mM FDP) and 0.447 in [1] (no preincubation, addition 5 mM ascorbate + 0.25 mM FDP). In addition, the “Sterilization of surfaces contaminated with B. subtilis spores” value in data set [8] was “sterilizes the surfaces”. This compound also yielded a Ferric iron in data set [3] of less than 1 mM. Also, in data set [4], the “Symptoms of Pcb infection in potato plants” value is given as “reduce symptom of Pcb infection”. Also, the “Number of leaf and root samples containing C. liberibacter spp nucleic acid (PCR)” value in data set [9] was “reduces the number of leaf and root samples containing C. liberibacter spp nucleic acid”. The “Number of plants showing signs of chlorosis” value in [9] is on record as “reduces the number of plants showing signs of chlorosis”. Moreover, the “Fenton activity (loss of blue color, brown precipitate)” value is “exhibited Fenton activity” in [5] (setting [12]) and “significant Fenton activity” in [5] (1 ml 50 mM complex + 1 ml 40% H2O2, 0.1% (w/v) methylene blue, 1 hour at ambient temperature, listed as ferrous di-pyruvate complex).

For “mono-ferrous di-citrate [mono-ferrous di-citrate complex, reference compound]”, the “Fenton activity (loss of blue color, brown precipitate)” value in data set [5] (setting [12]) is on record as “little to no Fenton activity”.

With “mono-ferrous mono-citrate [mono-ferrous mono-citrate complex, reference compound]”, in data set [5] (setting [12]), the “Fenton activity (loss of blue color, brown precipitate)” value is listed as “little to no Fenton activity”.
